Source: the supplement of paper PMC13380429

How the values were obtained:
Settings in all cases: 72 h
Vero E6 [1] = assay: drug sensitivity score (DSS) for viability; higher = more toxic; extreme values may be limits of the assay
U2OS [2] = assay: as above
Caco-2 [3] = assay: as above
Calu-3 [4] = assay: as above
HepG2 [5] = assay: as above
Vero E6 [6] = assay: cell viability relative to DMSO; higher = less toxic
U2OS [7] = assay: as above
Caco-2 [8] = assay: as above
Calu-3 [9] = assay: as above
HepG2 [10] = assay: as above
Vero E6 [11] = assay: relative viability EC50 (midpoint between 100% and the lowest measured viability); higher = less toxic
U2OS [12] = assay: as above
Caco-2 [13] = assay: as above
Calu-3 [14] = assay: as above
HepG2 [15] = assay: as above

Structure (SMILES)	drug sensitivity score (Vero E6 [1])	drug sensitivity score (U2OS [2])	drug sensitivity score (Caco-2 [3])	drug sensitivity score (Calu-3 [4])	drug sensitivity score (HepG2 [5])	cell viability (Vero E6 [6]; 1 nM) [%]	cell viability (Vero E6 [6]; 10 nM) [%]	cell viability (Vero E6 [6]; 100 nM) [%]	cell viability (Vero E6 [6]; 1000 nM) [%]	cell viability (Vero E6 [6]; 10000 nM) [%]	cell viability (U2OS [7]; 1 nM) [%]	cell viability (U2OS [7]; 10 nM) [%]	cell viability (U2OS [7]; 100 nM) [%]	cell viability (U2OS [7]; 1000 nM) [%]	cell viability (U2OS [7]; 10000 nM) [%]	cell viability (Caco-2 [8]; 1 nM) [%]	cell viability (Caco-2 [8]; 10 nM) [%]	cell viability (Caco-2 [8]; 100 nM) [%]	cell viability (Caco-2 [8]; 1000 nM) [%]	cell viability (Caco-2 [8]; 10000 nM) [%]	cell viability (Calu-3 [9]; 1 nM) [%]	cell viability (Calu-3 [9]; 10 nM) [%]	cell viability (Calu-3 [9]; 100 nM) [%]	cell viability (Calu-3 [9]; 1000 nM) [%]	cell viability (Calu-3 [9]; 10000 nM) [%]	cell viability (HepG2 [10]; 1 nM) [%]	cell viability (HepG2 [10]; 10 nM) [%]	cell viability (HepG2 [10]; 100 nM) [%]	cell viability (HepG2 [10]; 1000 nM) [%]	cell viability (HepG2 [10]; 10000 nM) [%]	relative viability EC50 (Vero E6 [11]) [µM]	relative viability EC50 (U2OS [12]) [µM]	relative viability EC50 (Caco-2 [13]) [µM]	relative viability EC50 (Calu-3 [14]) [µM]	relative viability EC50 (HepG2 [15]) [µM]
O=C1C[C@@H](c2ccc(O)cc2)Oc2cc(O)cc(O)c21 [naringenin]	0	0	0	0	0	101	99.7	101	94	93.3	98.9	104	95.6	102	103	114	103	90.3	97.2	88.5	93.2	97.9	89.9	99.7	93.7	104	107	99.3	95.1	99.9	> 10	> 10	> 10	> 10	> 10
NCCCCCC(O)(P(=O)(O)O)P(=O)(O)O [neridronic-acid]	0	0	0.6	0	0.3	91.5	95.8	92.8	94.2	96.8	99.9	95.9	98.8	92.8	108	108	95	88.9	107	76.5	90.2	83.3	92	93.9	106	100	110	111	97.9	86.2	> 10	> 10	> 10	> 10	> 10
Oc1ccc2c3c1O[C@H]1c4[nH]c5c(c4C[C@@]4(O)[C@@H](C2)N(CC2CC2)CC[C@]314)C[C@@]1(O)[C@H]2Cc3ccc(O)c4c3[C@@]1(CCN2CC1CC1)[C@H]5O4 [nor-binaltorphimine]	0	0	0	0	0	92.5	98.3	91.2	95.7	108	103	109	106	98.6	99	97.9	90.4	100	102	106	105	99.9	100	106	102	93.7	108	111	105	99.2	> 10	> 10	> 10	> 10	> 10
CC(C)(F)C[C@H](N[C@@H](c1ccc(-c2ccc(S(C)(=O)=O)cc2)cc1)C(F)(F)F)C(=O)NC1(C#N)CC1 [odanacatib]	0	0	0	0	0	101	98.8	99.8	99.4	106	103	108	93.3	102	94.8	96.1	99.9	99.1	94.1	90.4	98.3	97.1	100	115	98.7	110	104	99.4	101	94.1	> 10	> 10	> 10	> 10	> 10
CC(C)CCC[C@@H](C)[C@H]1CC[C@H]2[C@@H]3CCC4=CC(=NO)CC[C@]4(C)[C@H]3CC[C@]12C [olesoxime]	0	0	0	0	0	97.2	98.6	96.5	98.6	94.3	101	95.9	98	95.3	100	99.2	87.1	102	97.6	99.1	97.3	95.6	90.7	100	93.9	100	96.5	95.3	103	97.4	> 10	> 10	> 10	> 10	> 10
OCCOc1ccc(/C(=C(/CCCl)c2ccccc2)c2ccccc2)cc1 [ospemifene]	0	0	1.7	0	0	97.9	102	101	99.9	94.2	98.4	104	98.1	101	93.1	103	108	104	91.3	78	96.7	103	106	96.6	101	99.5	97	103	107	106	> 10	> 10	> 10	> 10	> 10
CCC(=O)NS(=O)(=O)c1ccc(-c2c(-c3ccccc3)noc2C)cc1 [parecoxib]	0	0	0	0	0	97.7	101	95.6	95.6	93.6	103	113	103	94.1	99.2	99.5	96	96.6	98.9	95.7	106	94.3	94.4	92.5	108	88.9	90	94	94.2	90.1	> 10	> 10	> 10	> 10	> 10
